Assays:
[1] = test system: E. coli Rosetta(DE3)pLysS; assay: Antibacterial activity (growth inhibition, EC50); assay type: cell-based, Escherichia coli; conditions: Escherichia coli
Description: (§1) A.S. Mankin (University of Illinois). E. coli ΔtolC strain BL21 DE3 with impaired AcrAB-TolC, a proton-dependent MDR efflux pump causing multidrug resistance, was offered by Dr D.N. Wilson (University of Munich) and included in our study to test if this mechanism of resistance affects the efficacy of CAM dimers. […] I. Spiliopoulou (National Reference Laboratory for Staphylococci, School of Medicine, University of Patras, Greece). Finally, E. coli strain Rosetta(DE3)pLysS, containing a chloramphenicol resistant gene in the pLysS plasmid, was purchased from Novagen and was also included in our study. Briefly, S. aureus or E. coli cells (200 μl of a 0.700 OD560 preculture) containing wild-type or mutant ribosomes were added in 3.8 ml of LB (Luria-Bertani) medium and grown at 37°C in the presence or absence of CAM or CAM dimers until the optical density of the control culture (grown in the absence of drug) reached the value 0.700 at 560 nm. For E. faecium and P. aeruginosa cultures, TSB (Tryptic Soy Broth) medium was used, instead of LB medium, in order to achieve exponential doubling times between 25 and 35 minutes. From dose-response curves, the half-maximal effective concentration (EC50) for each compound and strain was estimated. EC50 represents the molar concentration of a compound that produces 50% of the maximal possible effect. The EC50 values were mathematically determined by non linear regression fitting of the observed culture optical-density values, expressed as the percentage of 0.700 (y), into Hill Equation, y=min+max−min/1+(x/EC50)^−n where min and max are the lowest and highest observed values of the culture optical density, respectively, x the concentration of the tested compound, and n the Hill coefficient that represents the largest absolute value of the curve slope. EC50 is equal to the x- value of the sigmoid’s midpoint. Fitting was performed using the Four Parameter Logistic Curve of the SigmaPlot Program Version 11.0 (Systat Software, Inc) for Exact Graphs and Data Analysis.

[2] = test system: E. coli (A2503C); assay: Antibacterial activity (growth inhibition, EC50); assay type: cell-based, Escherichia coli; conditions: Escherichia coli
Description: as §1

[3] = test system: E. coli (A2058G); assay: Antibacterial activity (growth inhibition, EC50); assay type: cell-based, Escherichia coli; conditions: Escherichia coli
Description: as §1

[4] = test system: E. coli (ΔtolC); assay: Antibacterial activity (growth inhibition, EC50); assay type: cell-based, Escherichia coli; conditions: Escherichia coli, BL21-DE3
Description: as §1

[5] = test system: E. coli (WT); assay: Antibacterial activity (growth inhibition, EC50); assay type: cell-based, Escherichia coli; conditions: for EC50: Escherichia coli, LB medium, 37°C, OD560; for EC50(cell growth)/IC50(puro): wild-type E. coli, IC50(puro) calculated from Ki* at 2 mM puromycin
Description: as §1

[6] = test system: post-translocation ribosomal complex (complex C) derived from E. coli; assay: Inhibition of peptide-bond formation (puromycin reaction, AcPhe-puromycin synthesis); assay type: biochemical; conditions: for Ki: 25°C, buffer A; for k off: nonlinear regression of k eq; for activity compared to CAM: ranking by K i*; for k6 / k6/k7 / k7: S1 Table
Description: The inhibitory effect of CAM dimers on peptide-bond formation was studied using the puromycin reaction, a model reaction between puromycin and a post-translocation ribosomal complex (complex C) derived from E. coli. Since puromycin, a pseudo-substrate of PTase which binds to the A-site of the catalytic center, was present in excess, the reaction obeyed first-order kinetics. The first-order rate constant, k obs, at each concentration of puromycin was determined by fitting the x values into Eq 1, ln100/100−x=kobst (1) where x is the product AcPhe-puromycin, expressed as the percentage of complex C added in the reaction mixture, and t is the time of the reaction.
A representative time plot obtained at 400 μM puromycin, in the absence of inhibitor, is illustrated in Fig 3A (upper line) and, as expected, is characterized by linearity. However, when the reaction proceeded in the presence of a CAM dimer, e.g. compound 5, the time plots were characterized by two unique features that distinguish them from a typical kinetic behavior. […] Second, the slopes of both progress curves varied as a function of the inhibitor concentration (Fig 3A, four lower curves). […] These kinetic results are consistent with compound 5 operating through an induced fit mechanism (Fig 3C), in which the inhibitor first binds rapidly to complex C to form the encounter complex CI, which then undergoes a slow conformational change to produce a final, tighter complex C*I. Corroborative evidence for the consistency of this model is provided by the hyperbolic shape of the equilibration plots (k eq versus [I]), in which k eq represents the apparent rate constant for the attainment of equilibrium among C, CI, and C*I (Fig 3B). If one-step mechanism of inhibition was applicable (C + I ⇄ C*I), k eq should be a linear function of [I] [27]. […] Because the isomerization constant k on/k off was calculated to be 3.6, the inhibition process was finally associated with high overall inhibition of peptide-bond formation (Ki* = 0.3 μM; S1 Fig, panel C). In addition, the slow k off rate (0.64 min^-1) provided prolonged residence time for compound 5 at the ribosome, a behavior potentially predicting good efficacy in vivo [28].
The puromycin reaction, i.e. the reaction between complex C and excess puromycin (S), was carried out at 25°C in buffer A [100 mM Tris-HCl pH 7.2, 6 mM (CH3COO)2Mg, 100 mM NH4Cl and 6 mM 2-mercaptoethanol]. Under these conditions, the puromycin reaction obeys C + S ⇄KS CS→kcat C^′ + S pseudo-first-order kinetics and was analyzed as previously described.
In the presence of CAM dimers, biphasic semi-logarithmic time plots were obtained. The slope of the straight line through the origin was seen as the value of the apparent rate constant, k obs(early), at the early phase of the reaction. Similarly, the slope of the second straight line was taken as the apparent rate constant, k obs(late), at the late phase of the puromycin reaction.

[7] = test system: E. faecium (GRE5152); assay: Antibacterial activity (growth inhibition, EC50); assay type: cell-based; conditions: Enterococcus faecium; TSB medium, 37°C, OD560; read-out: EC50
Description: as §1

[8] = test system: MRSA (GRE2691); assay: Antibacterial activity (growth inhibition, EC50); assay type: cell-based; conditions: Staphylococcus aureus, LB medium, 37°C, OD560, read-out: EC50
Description: as §1

[9] = test system: MRSA (GRE2272); assay: Antibacterial activity (growth inhibition, EC50); assay type: cell-based; conditions: Staphylococcus aureus, LB medium, 37°C, OD560, read-out: EC50
Description: as §1

[10] = test system: S. aureus (WT); assay: Antibacterial activity (growth inhibition, EC50); assay type: cell-based; conditions: Staphylococcus aureus; LB medium, 37°C, OD560; read-out: EC50
Description: as §1

[11] = test system: P. aeruginosa (GRE5288); assay: Antibacterial activity (growth inhibition, EC50); assay type: cell-based, Pseudomonas aeruginosa; conditions: Pseudomonas aeruginosa; TSB medium; clinical isolate with MexAB-OprM and MexXY efflux; read-out: EC50
Description: as §1

[12] = overall inhibition constant (CI + C*I)

Structure (SMILES) | EC50 [1] | EC50 [2] | EC50 [3] | EC50 [4] | EC50 [5] | EC50(cell growth)/IC50(puro) [5] | Ki ([6]; encounter complex CI) | k off [6] | Ki [6, 12] | activity compared to CAM [6] | EC50 [7] | EC50 [8] | EC50 [9] | EC50 [10] | melting point | EC50 [11] | k6 [6] | k6/k7 [6] | k7 [6]
O=C(CC(=O)N[C@H](CO)[C@H](O)c1ccc([N+](=O)[O-])cc1)N[C@H](CO)[C@H](O)c1ccc([N+](=O)[O-])cc1 [Compound 1, N^1,N^3-Bis((1R,2R)-1,3-dihydroxy-1-(4-nitrophenyl)propan-2-yl)malonamide] | > 200 µM | > 200 µM | > 200 µM | > 200 µM | > 200 µM | >55.5 | 2.4 ± 0.18 µM | 0.01 ± 0.00083 s⁻¹ | 0.6 ± 0.05 µM | comparable | > 200 µM | > 200 µM | > 200 µM | 32.2 ± 1 µM | 142 to 143 °C | > 100 µM |  |  | 
O=C(/C=C/C(=O)N[C@H](CO)[C@H](O)c1ccc([N+](=O)[O-])cc1)N[C@H](CO)[C@H](O)c1ccc([N+](=O)[O-])cc1 [Compound 2, N^1,N^4-Bis((1R,2R)-1,3-dihydroxy-1-(4-nitrophenyl)propan-2-yl)fumaramide] | > 200 µM | > 200 µM | > 200 µM | > 200 µM | > 200 µM | >44.4 | 2.7 ± 0.25 µM | 0.0117 ± 0.00083 s⁻¹ | 0.75 ± 0.06 µM | comparable | > 200 µM | > 200 µM | > 200 µM | 44.4 ± 2.9 µM | 207 to 208 °C | > 100 µM |  |  | 
O=C(CCCC(=O)N[C@H](CO)[C@H](O)c1ccc([N+](=O)[O-])cc1)N[C@H](CO)[C@H](O)c1ccc([N+](=O)[O-])cc1 [Compound 3, N^1,N^5-Bis((1R,2R)-1,3-dihydroxy-1-(4-nitrophenyl)propan-2-yl)glutaramide] | 65.1 ± 6.6 µM | 68.1 ± 13.8 µM | 47.3 ± 6.9 µM | 43.7 ± 5.2 µM | 52.4 ± 6.8 µM | 7.28 ± 1.08 | 4.5 ± 0.36 µM | 0.0167 ± 0.0005 s⁻¹ | 1.2 ± 0.09 µM | lower | 69.8 ± 14.8 µM | 27.2 ± 3.4 µM | 20.8 ± 2.5 µM | 17.4 ± 1.3 µM |  | 42.4 ± 8.7 µM |  |  | 
O=C(CCCCCCC(=O)N[C@H](CO)[C@H](O)c1ccc([N+](=O)[O-])cc1)N[C@H](CO)[C@H](O)c1ccc([N+](=O)[O-])cc1 [Compound 6, N^1,N^8-Bis((1R,2R)-1,3-dihydroxy-1-(4-nitrophenyl)propan-2-yl)octane-diamide] | > 200 µM | > 200 µM | > 200 µM | > 200 µM | > 200 µM | >14.5 | 10.5 ± 0.9 µM | 0.0133 ± 0.00067 s⁻¹ | 2.3 ± 0.2 µM | lower | > 200 µM | > 200 µM | > 200 µM | 49.6 ± 5.4 µM | 131 to 132 °C | > 100 µM |  |  | 
O=C(CCCCCCCC(=O)N[C@H](CO)[C@H](O)c1ccc([N+](=O)[O-])cc1)N[C@H](CO)[C@H](O)c1ccc([N+](=O)[O-])cc1 [Compound 7, N^1,N^9-Bis((1R,2R)-1,3-dihydroxy-1-(4-nitrophenyl)propan-2-yl)nonanediamide] | > 200 µM | > 200 µM | > 200 µM | > 200 µM | > 200 µM | >11.9 | 12 ± 1.2 µM | 0.014 ± 0.001 s⁻¹ | 2.8 ± 0.27 µM | lower | > 200 µM | > 200 µM | > 200 µM | 72.7 ± 11.8 µM | 137 to 139 °C | > 100 µM |  |  | 
O=C(/C=C/c1ccc(/C=C/C(=O)N[C@H](CO)[C@H](O)c2ccc([N+](=O)[O-])cc2)cc1)N[C@H](CO)[C@H](O)c1ccc([N+](=O)[O-])cc1 [Compound 8, N,N^’-Bis((1R,2R)-1,3-dihydroxy-1-(4-nitrophenyl)propan-2-yl)-1,4-phenylene diacryldiamide] | > 200 µM | > 200 µM | > 200 µM | > 200 µM | > 200 µM |  |  |  |  | no activity | > 200 µM | > 200 µM | > 200 µM | > 200 µM | 144 to 145 °C | > 100 µM |  |  | 
O=C(O)CCCC(=O)N[C@H](CO)[C@H](O)c1ccc([N+](=O)[O-])cc1 [Compound 9, 5-(((1R,2R)-1,3-dihydroxy-1-(4-nitrophenyl)propan-2-yl)amino)-5-oxopentanoic acid] |  |  |  |  |  |  |  |  |  |  |  |  |  |  |  |  | 2.50 ± 0.33 min⁻¹ | 1.53 ± 0.18 | 1.63 ± 0.12 min⁻¹
O=C(O)CCCCC(=O)N[C@H](CO)[C@H](O)c1ccc([N+](=O)[O-])cc1 [Compound 10, 6-(((1R,2R)-1,3-dihydroxy-1-(4-nitrophenyl)propan-2-yl)amino)-6-oxohexanoic acid] |  |  |  |  |  |  |  |  |  |  |  |  |  |  |  |  | 2.52 ± 0.40 min⁻¹ | 2.25 ± 0.27 | 1.11 ± 0.12 min⁻¹
O=C(O)c1ccc(C(=O)N[C@H](CO)[C@H](O)c2ccc([N+](=O)[O-])cc2)cc1 [Compound 11, 4-(((1R,2R)-1,3-dihydroxy-1-(4-nitrophenyl)propan-2-yl)carbamoyl)benzoic acid] |  |  |  |  |  |  |  |  |  |  |  |  |  |  |  |  | 2.31 ± 0.48 min⁻¹ | 1.63 ± 0.31 | 1.42 ± 0.13 min⁻¹

Source: publication PMC4533973, “Synthesis and Evaluation of Chloramphenicol Homodimers: Molecular Target, Antimicrobial Activity, and Toxicity against Human Cells” (PLoS ONE, 2015)
